Experimental data as given in ChEMBL document CHEMBL1146647, “First total synthesis of structurally unique flavonoids and their strong anti-inflammatory effect” (2004).

Tested on: Mus musculus
Experiment: Percentage increase of mice ear thickness at 10 ug/kg
Format: functional

SMILES | Increase [%]
O=c1cc(-c2ccc(O)cc2)oc2cc3c(c(O)c12)[C@@H]1O[C@H](CO)[C@@H](O)[C@H](O)[C@@H]1O3 | 30
O=c1cc(-c2ccccc2)oc2cc3c(c(O)c12)[C@@H]1O[C@H](CO)[C@@H](O)[C@H](O)[C@@H]1O3 | 59
